Experimental data: patent publication US7608620B2, “LPAAT-β inhibitors and uses thereof” (Cell Therapeutics, Inc., priority 2000, dated 2009)

Tests used:
[1] = tested on: human breast tumor MCF-7 cells; assay: Proliferation of MCF-7 cells by CyQUANT analysis; format: cell-based; settings: FIG. 5E
Protocol: To determine whether administration of LPAAT-β inhibitor would have any effect on cell proliferation in tissue culture, proliferation of human breast tumor MCF-7 cells in microplates were measured by CyQUANT analysis using a green-fluorescent nucleic acid stain optimized to produce a linear detection range from 50 to 50,000 cells in 200 μl volume (Molecular Probes, Eugene, Oreg.) in the presence of various concentrations of a LPAAT-β inhibitor.

[2] = tested on: NIH/3T3 cells overexpressing the oncogene Ki-ras; assay: Tumor growth of NIH/3T3 cells overexpressing Ki-ras injected subcutaneously into nude mice; format: in vivo; settings: 10 mg/Kg to 100 mg/Kg intra-peritoneally on day 1, 2, 3 and 4; tumors measured on day 8; FIG. 6B
Protocol: To determine whether administration of LPAAT-β inhibitor would have any effect on tumor growth in mice, 5×10^5 NIH/3T3 cells overexpressing the oncogene Ki-ras were injected subcutaneously into nude mice. An LPAAT-β inhibitor 6-chloro-N,N′-diphenyl-[1,3,5]triazine-2,4-diamine, at concentrations that range from 10 mg/Kg to 100 mg/Kg of mouse body weight was injected intra-peritoneally on day 1, 2, 3 and 4 after injection of tumor cells. The size of tumors was then measured on day 8.

B16 melanoma cells = assay: Growth of B16 melanoma cells in syngeneic mice; format: in vivo; settings: FIG. 6C
Lewis Lung tumor cells = assay: Growth of Lewis Lung tumor cells in syngeneic mice; format: in vivo; settings: FIG. 6D
[3] = tested on: human DU145 prostate tumor cells; assay: Human DU145 prostate tumor xenograft in nude mice; format: in vivo; settings: xenograft study, FIG. 6E
[4] = Tolerability in nude and immunocompetent mice; format: in vivo
Text: In summary, endogenous LPAAT-β expression is detected at high levels by both in situ hybridization and immunohistochemistry in particular tumor tissues and often in surrounding stroma and is associated with tumor progression. LPAAT-β overexpression appears to contribute reversibly to transformation and tumorigenesis of immortalized rodent cells and may also contribute to increased transformation of weakly tumorigenic human cell lines. Compounds selected from screening of LPAAT-β inhibitors from different structural families can inhibit proliferation of numerous tumor cell lines in vitro. […] This compound can inhibit the growth of numerous tumor models in mice and may be a tumor-static compound.

LPAAT-β = target: T1, LPAAT-β (Homo sapiens, UniProt O15120); assay: Secondary assay of LPAAT-β activity (radiometric/TLC); format: biochemical; settings: FIG. 9
T1 construct: the full-length human LPAAT-β cDNA was amplified by PCR; made in house; host or cells: Sf9 insect cells (baculovirus, pFastBac HTc); membrane fraction
T1 sequence (O15120 24-278): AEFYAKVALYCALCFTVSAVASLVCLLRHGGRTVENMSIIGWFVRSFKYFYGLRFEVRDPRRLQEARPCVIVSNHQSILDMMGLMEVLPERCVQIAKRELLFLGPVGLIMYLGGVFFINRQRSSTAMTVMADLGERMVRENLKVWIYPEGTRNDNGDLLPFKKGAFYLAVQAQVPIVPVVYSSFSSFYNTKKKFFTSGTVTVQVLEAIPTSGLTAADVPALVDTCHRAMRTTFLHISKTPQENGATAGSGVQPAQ
Protocol: The radiometric assay was carried out in Sf9 cell membrane overexpressing LPAAT-β resuspended in HEPES-saline buffer, pH 7.5, 1 mg/ml BSA, 1 mM EDTA and 200 μM [^14C]18:1-CoA and 200 μM sn-1-18:1 lysoPA. The samples were incubated 7 min at 37° C. extracted into organic solvent (CHCl3/CH3OH/HCl at 33/66/1), before loading onto TLC plates. A more detailed protocol for the radiometric assay is described below:
Specifically, this LPAAT assay is a modification of the acyltransferase assay published previously (Hollenback and Glomset, Biochemistry 37: 363-376 (1999)).
1. The basic assay, in a total vol of 50 μl, employs a solution of substrates and the protein sample. Total assay volume, as well as the volume of each solution, can be changed to fit an experiment. In addition, other compounds, ex inhibitors and activators, can be included in the assay as well.
2. […]
7. […] To be able to convert pixel volume (determined by the Storm phosphor imager, see step 8b) into cpm, cpm standard curve must be generated on the plate. ^14C-labeled oleate dilutions in chloroform are made for this purpose. Four stocks (50 cpm/μl to 800 cpm/μl) are made and 2 μl of a different concentration are spotted in each corner of the plate (where previously there was no radioactivity). • d. […]
The PA and lysoPA bands are easily detected in this system because of the carrier added in step 5. […]
8. Quantitating activity: • a. […]

LPAAT-α = target: T2, LPAAT-α (Homo sapiens, UniProt Q99943); assay: Secondary assay, effect on LPAAT-α activity; format: biochemical; settings: FIG. 9
T2 sequence (Q99943 27-283): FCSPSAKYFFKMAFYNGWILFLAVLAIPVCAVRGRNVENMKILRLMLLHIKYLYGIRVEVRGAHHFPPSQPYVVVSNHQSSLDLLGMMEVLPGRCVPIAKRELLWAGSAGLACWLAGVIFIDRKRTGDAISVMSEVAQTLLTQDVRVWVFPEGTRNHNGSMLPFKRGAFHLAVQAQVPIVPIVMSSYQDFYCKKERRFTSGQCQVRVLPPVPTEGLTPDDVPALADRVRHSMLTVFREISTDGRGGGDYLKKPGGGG

SMILES: Clc1nc(Nc2ccccc2)nc(Nc2ccccc2)n1 [6-chloro-N,N′-diphenyl-[1,3,5]triazine-2,4-diamine]
- concentration effective in blocking the proliferation of MCF-7 cells [1]: > 20 µM
- volume of the tumors in mice [2]: decreased as the concentration of the LPAAT-β inhibitor increases
- growth of B16 melanoma cells (B16 melanoma cells): decrease the growth
- growth of Lewis Lung tumor cells (Lewis Lung tumor cells): decrease the growth
- growth of human DU145 prostate tumor cells [3]: decrease the growth
- gross pathology ([4]; at least 100 mg/kg/day for 4-5 days): no discernable gross pathology
- tolerated dose ([4]; nude and immunocompetent mice, mouse, in vivo): at least 100 mg/kg/day
- inhibition of LPAAT-β activity (LPAAT-β): concentration-dependent inhibition
- effect on LPAAT-α activity (LPAAT-α): minimal effect
